Source: US12077503B2, “Substituted cyclic amides and their use as herbicides” (FMC CORPORATION, priority 2015, dated 2024)

Assays:
Format in all cases: in vivo
[1] = test system: giant foxtail (Setaria faberi); experiment: Test G Pre-Emergence Protocol; settings: Setaria faberi, pre-emergence, 312 h, evaluated after 13 days; for pest or weed control at 15.625 g/ha: 15.625 g ai/ha; for pest or weed control at 15.625 g/ha / pest or weed control at 250 g/ha: read-out: Foxtail, Giant damage rating (100=total damage to plant; 0=no damage to plant); for pest or weed control at 62.5 g/ha: 62.5 g ai/ha, 100=total damage to plant, 0=no damage to plant, read-out: Foxtail, Giant damage rating; for pest or weed control at 250 g/ha: 250 g ai/ha
Summary of the method: (§1)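 Under a 24/16° C day/night regime with 14 h light and 65% humidity, sown pots were sprayed after one day with compound (15.625, 62.5 or 250 g/ha; 50:50 acetone/water, 0.5% Tween 20). Damage was assessed visually 13 days later, 0 to 100.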

[2] = test system: redroot pigweed (Amaranthus retroflexus); experiment: Test G Pre-Emergence Protocol; settings: Amaranthus retroflexus, pre-emergence, 312 h, evaluated after 13 days; for pest or weed control at 15.625 g/ha: 15.625 g ai/ha; for pest or weed control at 15.625 g/ha / pest or weed control at 250 g/ha: read-out: Pigweed, Redroot damage rating (100=total damage to plant; 0=no damage to plant); for pest or weed control at 62.5 g/ha: 62.5 g ai/ha, 100=total damage to plant, 0=no damage to plant, read-out: Pigweed, Redroot damage rating; for pest or weed control at 250 g/ha: 250 g ai/ha
Summary of the method: as §1

[3] = test system: barnyardgrass (Echinochloa crus-galli); experiment: Test G Pre-Emergence Protocol; settings: Echinochloa crus-galli, pre-emergence, 312 h, evaluated after 13 days; for pest or weed control at 15.625 g/ha: 15.625 g ai/ha; for pest or weed control at 15.625 g/ha / pest or weed control at 250 g/ha: read-out: Barnyardgrass damage rating (100=total damage to plant; 0=no damage to plant); for pest or weed control at 62.5 g/ha: 62.5 g ai/ha, 100=total damage to plant, 0=no damage to plant, read-out: Barnyardgrass damage rating; for pest or weed control at 250 g/ha: 250 g ai/ha
Summary of the method: as §1

[4] = test system: velvetleaf (Abutilon theophrasti); experiment: Test G Pre-Emergence Protocol; settings: Abutilon theophrasti, pre-emergence, 312 h, evaluated after 13 days; for pest or weed control at 15.625 g/ha: 15.625 g ai/ha; for pest or weed control at 15.625 g/ha / pest or weed control at 250 g/ha: read-out: Velvetleaf damage rating (100=total damage to plant; 0=no damage to plant); for pest or weed control at 62.5 g/ha: 62.5 g ai/ha, 100=total damage to plant, 0=no damage to plant, read-out: Velvetleaf damage rating; for pest or weed control at 250 g/ha: 250 g ai/ha
Summary of the method: as §1

[5] = test system: corn (Zea mays); experiment: Test G Pre-Emergence Protocol; settings: Zea mays, pre-emergence, 312 h, evaluated after 13 days; for plant injury at 15.625 g/ha: 15.625 g ai/ha; for plant injury at 15.625 g/ha / plant injury at 250 g/ha: read-out: Corn damage rating (100=total damage to plant; 0=no damage to plant); for plant injury at 62.5 g/ha: 62.5 g ai/ha, 100=total damage to plant, 0=no damage to plant, read-out: Corn damage rating; for plant injury at 250 g/ha: 250 g ai/ha
Summary of the method: as §1

[6] = test system: ivy-leaved morning glory (Ipomoea hederacea); experiment: Test G Pre-Emergence Protocol; settings: Ipomoea, pre-emergence, 312 h, evaluated after 13 days; for pest or weed control at 15.625 g/ha: 15.625 g ai/ha; for pest or weed control at 15.625 g/ha / pest or weed control at 250 g/ha: read-out: Morningglory, Ivy-leaved damage rating (100=total damage to plant; 0=no damage to plant); for pest or weed control at 62.5 g/ha: 62.5 g ai/ha, 100=total damage to plant, 0=no damage to plant, read-out: Morningglory, Ivy-leaved damage rating; for pest or weed control at 250 g/ha: 250 g ai/ha
Summary of the method: as §1

[7] = test system: giant foxtail (Setaria faberi); experiment: Test G Post-Emergence Protocol; settings: Setaria faberi, post-emergence, 312 h, read-out: Foxtail, Giant damage rating; for pest or weed control at 15.625 g/ha: 15.625 g ai/ha, evaluated after 13 days (100=total damage to plant; 0=no damage to plant); for pest or weed control at 62.5 g/ha: 62.5 g ai/ha; for pest or weed control at 62.5 g/ha / pest or weed control at 250 g/ha: evaluated after 13 days, 100=total damage to plant, 0=no damage to plant; for pest or weed control at 250 g/ha: 250 g ai/ha
Summary of the method: (§2)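 Seedlings grown 8 days in soil in a glasshouse (24/16 °C day/night, 14 h light, 65% humidity) were sprayed post-emergence with compound in acetone/water 50:50 plus 0.5% Tween 20 at 15.625, 62.5 or 250 g/ha. Damage was scored after 13 days on a 0–100 scale (100 = total damage).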

[8] = test system: redroot pigweed (Amaranthus retroflexus); experiment: Test G Post-Emergence Protocol; settings: Amaranthus retroflexus, post-emergence, 312 h, read-out: Pigweed, Redroot damage rating; for pest or weed control at 15.625 g/ha: 15.625 g ai/ha, evaluated after 13 days (100=total damage to plant; 0=no damage to plant); for pest or weed control at 62.5 g/ha: 62.5 g ai/ha; for pest or weed control at 62.5 g/ha / pest or weed control at 250 g/ha: evaluated after 13 days, 100=total damage to plant, 0=no damage to plant; for pest or weed control at 250 g/ha: 250 g ai/ha
Summary of the method: as §2

[9] = test system: barnyardgrass (Echinochloa crus-galli); experiment: Test G Post-Emergence Protocol; settings: Echinochloa crus-galli, post-emergence, 312 h, read-out: Barnyardgrass damage rating; for pest or weed control at 15.625 g/ha: 15.625 g ai/ha, evaluated after 13 days (100=total damage to plant; 0=no damage to plant); for pest or weed control at 62.5 g/ha: 62.5 g ai/ha; for pest or weed control at 62.5 g/ha / pest or weed control at 250 g/ha: evaluated after 13 days, 100=total damage to plant, 0=no damage to plant; for pest or weed control at 250 g/ha: 250 g ai/ha
Summary of the method: as §2

[10] = test system: velvetleaf (Abutilon theophrasti); experiment: Test G Post-Emergence Protocol; settings: Abutilon theophrasti, post-emergence, 312 h, read-out: Velvetleaf damage rating; for pest or weed control at 15.625 g/ha: 15.625 g ai/ha, evaluated after 13 days (100=total damage to plant; 0=no damage to plant); for pest or weed control at 62.5 g/ha: 62.5 g ai/ha; for pest or weed control at 62.5 g/ha / pest or weed control at 250 g/ha: evaluated after 13 days, 100=total damage to plant, 0=no damage to plant; for pest or weed control at 250 g/ha: 250 g ai/ha
Summary of the method: as §2

[11] = test system: corn (Zea mays); experiment: Test G Post-Emergence Protocol; settings: Zea mays, post-emergence, 312 h, read-out: Corn damage rating; for plant injury at 15.625 g/ha: 15.625 g ai/ha, evaluated after 13 days (100=total damage to plant; 0=no damage to plant); for plant injury at 62.5 g/ha: 62.5 g ai/ha; for plant injury at 62.5 g/ha / plant injury at 250 g/ha: evaluated after 13 days, 100=total damage to plant, 0=no damage to plant; for plant injury at 250 g/ha: 250 g ai/ha
Summary of the method: as §2

[12] = test system: ivy-leaved morning glory (Ipomoea hederacea); experiment: Test G Post-Emergence Protocol; settings: Ipomoea, post-emergence, 312 h, read-out: Morningglory, Ivy-leaved damage rating; for pest or weed control at 15.625 g/ha: 15.625 g ai/ha, evaluated after 13 days (100=total damage to plant; 0=no damage to plant); for pest or weed control at 62.5 g/ha: 62.5 g ai/ha; for pest or weed control at 62.5 g/ha / pest or weed control at 250 g/ha: evaluated after 13 days, 100=total damage to plant, 0=no damage to plant; for pest or weed control at 250 g/ha: 250 g ai/ha
Summary of the method: as §2

| Compound | pest or weed control at 15.625 g/ha [1] [%] | pest or weed control at 62.5 g/ha [1] [%] | pest or weed control at 250 g/ha [1] [%] | pest or weed control at 15.625 g/ha [2] [%] | pest or weed control at 62.5 g/ha [2] [%] | pest or weed control at 250 g/ha [2] [%] | pest or weed control at 15.625 g/ha [3] [%] | pest or weed control at 62.5 g/ha [3] [%] | pest or weed control at 250 g/ha [3] [%] | pest or weed control at 15.625 g/ha [4] [%] | pest or weed control at 62.5 g/ha [4] [%] | pest or weed control at 250 g/ha [4] [%] | plant injury at 15.625 g/ha [5] [%] | plant injury at 62.5 g/ha [5] [%] | plant injury at 250 g/ha [5] [%] | pest or weed control at 15.625 g/ha [6] [%] | pest or weed control at 62.5 g/ha [6] [%] | pest or weed control at 250 g/ha [6] [%] | pest or weed control at 15.625 g/ha [7] [%] | pest or weed control at 62.5 g/ha [7] [%] | also measured |
| --- | --- | --- | --- | --- | --- | --- | --- | --- | --- | --- | --- | --- | --- | --- | --- | --- | --- | --- | --- | --- | --- |
| CN1C[C@H](c2cccc(C(F)(F)F)c2)[C@@H](C(=O)Nc2cccnc2F)C1=O (racemic) [Compound 1809] | 90 | 90 | 90 | 0 | 0 | 60 | 90 | 80 | 90 | 0 | 0 | 50 | 60 | 80 | 90 | 10 | 70 | 80 | 80 | 80 | pest or weed control at 250 g/ha [7]: 80%; pest or weed control at 15.625 g/ha [8]: 20%; pest or weed control at 62.5 g/ha [8]: 20%; pest or weed control at 250 g/ha [8]: 50%; pest or weed control at 15.625 g/ha [9]: 80%; pest or weed control at 62.5 g/ha [9]: 80%; pest or weed control at 250 g/ha [9]: 80%; pest or weed control at 15.625 g/ha [10]: 0%; pest or weed control at 62.5 g/ha [10]: 0%; pest or weed control at 250 g/ha [10]: 40%; plant injury at 15.625 g/ha [11]: 80%; plant injury at 62.5 g/ha [11]: 80%; plant injury at 250 g/ha [11]: 80%; pest or weed control at 15.625 g/ha [12]: 20%; pest or weed control at 62.5 g/ha [12]: 70%; pest or weed control at 250 g/ha [12]: 70% |
| Cc1c(F)cccc1NC(=O)[C@@H]1C(=O)N(C)C[C@H]1c1ccc2nonc2c1 (racemic) [Compound 1818] | 70 | 90 | 90 | 0 | 0 | 40 | 30 | 30 | 90 | 0 | 30 | 70 | 0 | 0 | 70 | 0 | 10 | 40 | 40 | 80 | pest or weed control at 250 g/ha [7]: 80%; pest or weed control at 15.625 g/ha [8]: 0%; pest or weed control at 62.5 g/ha [8]: 0%; pest or weed control at 250 g/ha [8]: 0%; pest or weed control at 15.625 g/ha [9]: 0%; pest or weed control at 62.5 g/ha [9]: 30%; pest or weed control at 250 g/ha [9]: 80%; pest or weed control at 15.625 g/ha [10]: 0%; pest or weed control at 62.5 g/ha [10]: 0%; pest or weed control at 250 g/ha [10]: 30%; plant injury at 15.625 g/ha [11]: 0%; plant injury at 62.5 g/ha [11]: 30%; plant injury at 250 g/ha [11]: 60%; pest or weed control at 15.625 g/ha [12]: 0%; pest or weed control at 62.5 g/ha [12]: 10%; pest or weed control at 250 g/ha [12]: 40% |
| CN1C[C@@H](c2ccc(CF)cc2)[C@H](C(=O)Nc2cccc(F)c2F)C1=O (racemic) [Compound 1822] | 90 | 90 | 90 | 0 | 60 | 80 | 70 | 90 | 90 | 0 | 60 | 80 | 0 | 20 | 70 | 0 | 20 | 80 | 70 | 80 | pest or weed control at 250 g/ha [7]: 80%; pest or weed control at 15.625 g/ha [8]: 0%; pest or weed control at 62.5 g/ha [8]: 10%; pest or weed control at 250 g/ha [8]: 30%; pest or weed control at 15.625 g/ha [9]: 70%; pest or weed control at 62.5 g/ha [9]: 80%; pest or weed control at 250 g/ha [9]: 80%; pest or weed control at 15.625 g/ha [10]: 0%; pest or weed control at 62.5 g/ha [10]: 30%; pest or weed control at 250 g/ha [10]: 40%; plant injury at 15.625 g/ha [11]: 0%; plant injury at 62.5 g/ha [11]: 40%; plant injury at 250 g/ha [11]: 60%; pest or weed control at 15.625 g/ha [12]: 20%; pest or weed control at 62.5 g/ha [12]: 10%; pest or weed control at 250 g/ha [12]: 30% |
